Patent publication US20230277831A1, “Focused Ultrasound Device” (Washington University, priority 2022, published 2023)

Test: Evans blue delivery after FUS-BBBO, fluorescence imaging of brain sections
Assay type: in vivo, mice (C57BL/6)
Details: mouse brain
Protocol: Following the FUS-BBBO treatment as described in Example 3, the brains of the mice were harvested and harvested sections were fluorescence imaged using an LI-COR imaging system (Pearl Trilogy; 700 Channel laser source (Ex 785 nm/Em 820 nm); resolution 85 μm). Enhanced fluorescence signals associated with the delivery of Evans blue through the FUS-disrupted BBB were determined by comparing sections from FUS-BBBO and corresponding untreated brain halves.
Evans Blue has been commonly used as a model drug for evaluating the FUS-BBBO drug delivery outcome. The harvested mouse brains were cut into 1-mm thick coronal sections using the mouse brain matrix (World Precision Instrument, Sarasota, Fla., USA). Fluorescence images of brain sections were taken using a LI-COR imaging system (Pearl Trilogy; 700 Channel laser source (Ex 785 nm/Em 820 nm); resolution 85 μm) and analyzed using Matlab (Mathworks, Natick, Mass., USA). […] Pixels with intensities above the background autofluorescence intensity were identified for each brain section. Evans blue delivery volume was calculated by the total number of pixels with enhanced fluorescence signal in all the brain sections. The mean fluorescence intensity of pixels with enhanced fluorescence signal in all the brain sections was calculated to represent the signal intensity of the delivered Evans blue.

- Evans Blue extravasation (FUS at 0.4 MPa and 0.57 MPa for all frequencies (1.5, 3.0, 6.0 MHz) and 0.2 MPa for 1.5 MHz): observed
- Evans Blue extravasation (FUS at 3.0 MHz and 6.0 MHz at 0.2 MPa): not detectable
- Evans Blue delivery volume (i.v., FUS-BBBO at 1.5 MHz, 0.57 MPa (largest BBB opening volume), mean±SD): 69±3.8 mm^3
- Evans Blue signal intensity (i.v., FUS-BBBO at 1.5 MHz, 0.57 MPa, mean fluorescence intensity, mean±SD): 47±8.2
- Evans Blue delivery volume (i.v., FUS-BBBO at 6 MHz, 0.4 MPa (smallest BBB opening volume), mean±SD): 8.9±1.3 mm^3
Compound: Cc1cc(-c2ccc(/N=N/c3ccc4c(S(=O)(=O)O)cc(S(=O)(=O)O)c(N)c4c3O)c(C)c2)ccc1/N=N/c1ccc2c(S(=O)(=O)O)cc(S(=O)(=O)O)c(N)c2c1O [Evans Blue]
